From US6838237B2, “Antigenically reactive regions of the hepatitis a virus polyprotein” (The United States of America as represented by the …, priority 1996, dated 2005)
Where “and” joins values, the source holds several entries; their conditions need not be identical. Equal entries are not always repeated.

Experiments:
anti-HAV-negative sera = assay: EIA for anti-HAV: synthetic peptides reacted with anti-HAV-negative sera; format: binding, human; conditions: experiment 1: sera 1:100, cutoff P/N 3.0
Description: (§1) All anti-HAV-positive and anti-HAV-negative sera were randomly selected from a collection reposited at the Centers for Disease Control and Prevention, Atlanta, Ga. Serum specimens were collected from anti-HAV-positive patients with acute liver disease. Anti-HAV-negative serum specimens were collected from normal blood donors. All sera were initially tested by commercially available kit for the presence of anti-HAV activity (HAVAB and HAVAB-M, Abbott Laboratories, Abbott Park, Ill.)
(§2) Synthetic peptides (110 ml) at a concentration of 10 mg/ml in 0.1 M phosphate-buffered saline (PBS), pH 7.5, were adsorbed to microtiter wells (Immulon II, Dynatech Laboratories, Inc.) at room temperature for 12 h. Sera were diluted in PBS containing 0.1% Tween 20 and 10% normal goat serum (PBS-T) and 100 ml were added to each well, incubated for 60 min at 37E C, and washed with PBS containing Tween-20. […] Two different cutoffs were established for experiments 1 and 2. In experiment 1, the cutoff, expressed as a P/N ratio and equal to 3.0, was statistically established as the mean of negative controls plus at least 3.5 standard deviations (SD) above the mean, where P represents the optical density value at 493 nm (OD493) of anti-HAV-positive specimens and N represents the optical density value of negative controls. In experiment 2, a different cutoff was used to ensure statistical reliability and accurate interpretation of positive results. In this case, in addition to anti-HAV-negative sera, two irrelevant synthetic peptides were used as supplemental negative controls to determine the degree of nonspecific binding of anti-HAV sera to synthetic peptides. One cutoff, expressed as a P/N ratio and equal to 3.0, corresponded to the mean of negative serum controls plus at least 3.5 SD above the mean. A second cutoff was also expressed as a P/N ratio, where P represents the optical density value at 493 nm (OD493) for HAV peptides immunoreacting with anti-HAV-positive specimens and N represents the optical density value obtained with the irrelevant peptides. The second cutoff was equal 2.0 and corresponded to the mean of OD values obtained with the irrelevant peptides plus at least 3.5 SD above the mean. Synthetic peptides were considered immunoreactive with anti-HAV serum specimens only when both cutoffs were satisfied.

anti-HAV-positive sera = assay: EIA for anti-HAV: synthetic peptides adsorbed to wells, reacted with anti-HAV-positive acute sera; format: binding, human; conditions: for Reactivity with acute sera (reactive/tested): experiment 1: sera 1:100, anti-human IgG-HRP, cutoff P/N 3.0; for Reactivity with acute sera (percent of sera reactive): experiment 1: sera 1:100, cutoff P/N 3.0; for P/N for acute sera (mean) / P/N for acute sera (range, in parentheses) / P/N for acute sera (individual values): experiment 1; for P/N for acute sera (mean) / P/N for acute sera (range, in parentheses): OD493 positive/negative ratio of reactive sera; for P/N for acute sera (individual values): single sera listed with semicolon
Description: as §1, §2

Sequence | Reactivity with negative sera (reactive/tested) (anti-HAV-negative sera) | Reactivity with acute sera (reactive/tested) (anti-HAV-positive sera) | Reactivity with acute sera (percent of sera reactive) (anti-HAV-positive sera) [%] | P/N for acute sera (mean) (anti-HAV-positive sera) | P/N for acute sera (range, in parentheses) (anti-HAV-positive sera) | immunoreactivity with anti-HAV-positive sera (in words) (anti-HAV-positive sera) | P/N for acute sera (individual values) (anti-HAV-positive sera) | percent of (IgM) anti-HAV-positive sera immunoreactive with peptide (anti-HAV-positive sera) [%]
GQKIVDEFKKLGMTATSADK [YK-1428] | 0/27 | 1/41 | 2.4 | 7.28 | – | – | – | –
HFKDPQYPVWELTIRVWSEL [YK-1222] | 0/46 | 2/41 | 4.9 | 4.29 | – | – | – | –
HFLCTFTFNSNNKEYTFPIT [YK-1279] | 1/46 | 7/41 | 17.1 | 3.43 | (3.11-3.67) | – | – | –
HGVTKPKQVIKLDADPVESQ [YK-1374] | 0/27 | 18/41 | 43.9 | 10.57 | (3.28-29.07) | very broad and strong antigenic reactivity | – | –
HTYARFGIEIQVQINPTPFQ [YK-1216] | 4/46 | 23/41 | 56.1 | 5.3 | (3.42-10.79) | – | – | –
IKVIPVDPYFFQMTNTNPDQ [YK-1244] | 0/46 | 6/41 | 14.6 | 4.2 | (3.55-5.2) | – | – | –
INNVNLYYVFSKIFGKSPVF [YK-1424] | 0/27 | 3/41 | 7.3 | 6.69 | (3.48-10.83) | – | – | –
INPTPFQQGGLICAMVPGDQ [YK-1217] | 0/46 | 4/41 | 9.8 | 4.03 | (3.94-4.12) | – | – | –
ITTIEDPVLAKKVPETFPEL [YK-1271] | 1/46 | 4/41 | 9.8 | 4.97 | (3.33-7.76) | – | – | –
KCITALASICQMFCFWRGDL [YK-1247] | 0/48 | 9/46 | 19.6 | 3.96 | (3.06-4.49) | – | – | –
KINLADRMLGLSGVQEIKEQ [YK-1331] | 0/51 | 13/48 | 27.1 | 5.71 | (3.71-10.3) | – | – | –
KNDGTTVDLTVDQAWRGKGE [YK-1389] | 0/27 | 3/41 | 7.3 | 10.33 | (5.53-18.26) | – | – | –
KNPHNDMLNVNLAKTNDAIK [YK-1363] | 0/41 | 5/41 | 12.2 | 5.96 | (5.31-6.33) | – | – | –
KTMIRFGDVGLDLDFSAFDA [YK-1418] | 1/27 | 6/41 | 14.6 | 4.5 | (3.35-6.21) | – | – | –
KVNFPHGMLDLEEIAANSKD [YK-1327] | 1/51 | 15/48 | 31.3 | 6.16 | (3.28-9.76) | – | – | –
LAKTNDAIKDMSCVDLIMDG [YK-1364] | 1/41 | 4/41 | 9.8 | 4.9 | (3.5-6.18) | – | – | –

Sequence | Reactivity with negative sera (reactive/tested) (anti-HAV-negative sera) | Reactivity with acute sera (reactive/tested) (anti-HAV-positive sera) | Reactivity with acute sera (percent of sera reactive) (anti-HAV-positive sera) [%] | P/N for acute sera (mean) (anti-HAV-positive sera) | P/N for acute sera (range, in parentheses) (anti-HAV-positive sera) | immunoreactivity with anti-HAV-positive sera (in words) (anti-HAV-positive sera) | P/N for acute sera (individual values) (anti-HAV-positive sera) | percent of (IgM) anti-HAV-positive sera immunoreactive with peptide (anti-HAV-positive sera) [%]
LDENGLLLGVHPRLAQRILF [YK-1407] | 0/27 | 2/41 | 4.9 | – | – | – | 3.43 and 3.98 | –
LGMTATSADKNVPQLKPVSE [YK-1429] | 0/27 | 5/41 | 12.2 | 10.25 | (4.92-27.38) | – | – | –
LGSINQAMVTRCEPVVCYLY [YK-1347] | 2/51 | 13/48 | 27.1 | 4.16 | (3.18-6.2) | – | – | 27.1
LNMASLEEKGRHFSSPFIIA [YK-1357] | 1/51 | 4/48 | 8.3 | 4.49 | (4.06-4.85) | – | – | –
LSFSCYLSVTEQSEFYFPRA [YK-1307] | 0/51 | 6/48 | 12.5 | 5.88 | (4.17-7.64) | – | – | –
LYNEQFAVQGLLRYHTYARF [YK-1215] | 0/46 | 10/41 | 24.4 | 5.29 | (3.41-8.83) | not found immunoreactive | – | –
MEEKATYVHKKNDGTTVDLT [YK-1388] | 0/27 | 4/41 | 9.8 | 4.29 | (3.99-4.7) | – | – | –
MLSKYSLPIVEEPEDYKEAS [YK-1399] | 1/27 | 5/41 | 12.2 | 6.86 | (4.05-16.46) | – | – | –
MSRIAAGDLESSVDDPRSEE [YK-1312] | 2/51 | 13/48 | 27.1 | 8.7 | (4.44-25.9) | – | – | –
NIGTGTSAYTSLNVLARFTD [YK-1224] | 0/46 | 9/41 | 22.0 | 3.53 | (3.09-4.17) | – | – | –
NILKDNQQKIEKAIEEADEF [YK-1341] | 1/51 | 3/48 | 6.3 | 5.23 | (3.44-8.26) | – | – | –
NPSPKTVYVKEAIDRRLHFK [YK-1360] | 0/46 | 4/41 | 9.8 | 4.08 | (3.68-4.71) | – | – | –
NRGKMDVSGVQAPVGAITTI [YK-1268] | 2/48 | 7/46 | 15.2 | 9.1 | (6.07-15.25) | – | – | –
PLNSNAMLSTESMMSRIAAG [YK-1310] | 0/51 | 3/48 | 6.3 | – | – | – | 3.68 and 5.23 | –
PQLKPVSELTFLKRSFNLVE [YK-1431] | 1/27 | 4/41 | 9.8 | 14.13 | (3.17-27.53) | – | – | –
PYKELRLEVGKQRLKYAQEE [YK-1316] | 2/51 | 20/48 | 41.7 | 8.71 | (3.5-17.8) | – | – | –
